The test system of data set [1] is pancreatic elastase induced acute lung injury in mice. The experiment in a line: Inhibitory effect on pancreatic elastase induced acute lung injury in mice. The settings on record: oral 10 mg/Kg at 3.5 hr before and 4.5~5.0 hr after P. elastase (5 μg/site); BAL fluid at 20 hrs. The class given is in vivo, ICR mice. On the procedure: ICR mice (25~30 g, .male., n=7~8) were used.
The compound to be evaluated was suspended in 0.5% sodium carboxymethylcellulose-saline.
Oral administration of the test compound was given at 10 mg/Kg at 3. 5 hr before an intratacheal instillation of P. elastase (5 μg/site). After sodium pentobarbital anesthetized, sterile saline containing P. elastase was instilled intratracheally via ventral neck in the throat incisions using a 250 μl syringe attached to a 27-gauge needle.
The throat incisions were closed with surgical suture, and test compounds were administered with the same manner as described above at 4.5~5.0hr after an intratracheal instillation of P. elastase.
At 20 hrs after an intratracheal instillation of P. elastase, animalz were euthanized by an i.p. pentobarbital overdose, each animal trachea was reexposed and the ventral nech region was small incised. A 10 cm length of small-diameter (O.D=0.5 mm) polyethylene catheter inserted and held in place using surgical suture. The lung were then lavaged with 500 μl sterile saline using a 1 ml syringe by gently expanding the lung and then withdrawing the saline.
The same operation was repeated 6 times, yielding in a final volume of 3 ml bronchoalveolar lavage (BAL) fluid from each animal.
The test compounds were evaluated as a inhabitory percent of hemorrhage and leukocyte number in the BAL fluid from each animal.
Operation for hemorrhage and leukocyte number assay;
Red blood cells were bursted with adding 50 μl KCN solution (0.33%) per 1 ml BAL fluid. The amount of blood in each BAL fluid sample was calculated from a hemoglobin standard curve.
(§1) BAL fluid was diluted to 100 fold with a balanced electrolyte solution and KCN solution (0.33%) was added to the diluted BAL fluid for lysis of contaminating red blood cells.
Leukocyte number was determined by the average of the three times count using a particle counter.
Inhibitory effects of the test compounds on hemorrhage and leukocyte infiltration were calculated from the following equation: Inhibitory percent=[1-(The average value of test compound
group)/(The average value of the control group)]×100
The control animals were dosed orally with the same amount of vehicle before and after intratracheal instillation of P. elastase, and it were treated with the same manner as the test compound group.

For another data set, the target named is T1, human sputum elastase (Homo sapiens, UniProt P08246).
T1 sequence (P08246 30-247 limits assumed): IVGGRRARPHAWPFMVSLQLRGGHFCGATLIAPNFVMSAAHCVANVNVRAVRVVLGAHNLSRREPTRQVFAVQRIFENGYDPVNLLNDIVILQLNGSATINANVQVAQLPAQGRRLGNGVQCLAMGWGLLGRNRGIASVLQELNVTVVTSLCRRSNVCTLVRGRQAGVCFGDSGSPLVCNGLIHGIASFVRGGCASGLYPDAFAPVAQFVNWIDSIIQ
In words: Inhibitory effect on elastase (human sputum), spectrophotometric assay with MeOSuc-Ala-Ala-Pro-Val-pNA. It is filed as biochemical.

Data set [2] can be described thus: Cytotoxicity test (MTT, three days). The class given is cell-based. The conditions noted are these: mouse, l1210 cells, read-out: Survival rate; for viability at 72 h, 1 µM: final concentration 1 μM; for viability at 72 h, 5 µM: final concentration 5 μM; for viability at 72 h, 10 µM: final concentration 10 μM. How it is done: L1210 (lymphocytic leukemia, mouse) cells in a logarithmic growth phase were collected and washed twice with HBSS (Hanks' balanced salt solution). The L1210 cells were resuspended at 5.0×10^4 cells/ml in RPMI 1640 medium containing 10% heat-inactivated fetal bovine serum. The cell suspension was dispensed in 100 μl aliquots into 96 well multi-plate. Each of compounds to be tested was dissolved in dimethylsulfoxide at a concentration of 10 mM. The solutions were stepwise diluted with RPMI 1640 solution containing 10% heat-inactivated fetal bovine serum. Each of the diluted samples was dispensed in an amount of 10 μl well in the 96 well multi-plate containing L1210 cells and incubated for three days at 37° C. in humidified 5% CO2 -air mixture. To each of the wells, 10 μl of MTT (3-(4,5-dimethylthiazol-2-yl)-2,5-diphenyltetrazolium bromide)(5 mg/ml in phosphate buffer free of Ca^2+ and Mg^2+) was added. Cultivation was continued for additional five hours at 37° C. in humidified 5% CO2 -air mixture. To each of the wells, 100 μl of 20% SDS (sodium dodecyl sulfate) in 0.01N HCl was added to solubilize the MTT formazan.
Absorbance was measured at 630 nm as a reference wavelength and 570 nm as a measuring wavelength using Corona Electric MTP22 Microplate Photometer. The measurement was conducted three times for each of the samples to obtain an average value and a standard deviation. Survival rate was calculated by the following equation:
Survival rate (5)=[(absorbance of test sample)/(absobance of […]

The test system of data set [3] is endotoxin induced acute lung injury in mice. The experiment in a line: Inhibitory effect on endotoxin induced acute lung injury in mice. The class given is in vivo, ICR mice. The settings on record: Mus musculus, oral 10 mg/Kg at 1.5 hr before and 4.5~5.0 hr after LPS (25 μg/site), BAL fluid at 19~20 hrs. On the procedure:
ICR mice (25~30 g, .male., n=7) were used.
The test compounds were suspended at 0.1% in 0.5% sodium carboxymethylcellulose-saline.
Oral administration of the test compounds were given at 10 mg/Kg at 1.5 hr before an intratracheal instillation of LPS (E.coli, 055:B5, Difico, 25 μg/site). After sodium pentobarbital anesthetized, LPS dissolved in sterile saline was instilled intratracheally via a ventral neck in the throat incisionusing with a 250 μl syringe attached to a 27-gauge needle.
The throat incisions were sutured with surgical threads, and PI-compound was administered with the same mannner as described above 4.5~5.0 hr after LPS instillation.
Up 19~20 hrs after LPS instillation, animals were euthanized by an i.p. pentobarbital overdose, each animal trachea was reexposed and the ventral neck region was small incised.
A 10 cm length of small-diameter (O.D=0.5 mm) polyethylene catheter inserted and held in place using surgical suture. The lung was then lavaged with a single 500 μl sterile saline using a 1 ml syringe by gently expanding the lung and then withdrawing the saline. The same operation was repeated 6 times, yielding a final volume of 3 ml bronchoalveolar lavage (BAL) fluid from each animal.
Evaluation of testing compounds were expressed as inhibitory percent of hemorrhage and leukocyte infiltration in the lung of each animals.
Estimation for hemorrhage:
Red blood cells were bursted with adding 50 μl KCN solution (0.33 %) per 1 ml of BAL fluid, and then the amount of blood in each BAL fluid samples were calculated from a hemoglobin standard curve.
Estimation of leukocyte infiltrations:
as §1
Leukocyte number was determined from the average of the three times count using a particle counter.
The inhibitory effect of testing compounds were calculated from thefollowing equation:
Inhibitory percent=[1-(The average value of the test compound group)/(The
average value of the control group)]×100
The control animals were dosed orally with the same amount of the vehicle before and after intratracheal instillation of LPS and were operated with the same manner as the animals tested with the test compounds.

Data set [4] has as its target T2, human neutrophil elastase (Homo sapiens, UniProt P08246).
T2 construct: using elastase from human neutrophil or human sputum; from tissue; host or cells: human neutrophil
T2 sequence (P08246 30-247 limits assumed): T1 sequence (P08246 30-247 limits assumed)
The experiment in a line: Inhibitory effect on elastase (human neutrophil), spectrophotometric assay with MeOSuc-Ala-Ala-Pro-Val-pNA. The class given is biochemical.
Experimental: Namely, it is a spectrophotometric assay using the synthesized substrate, methoxysuccinyl-alanyl-alanyl- prolyl-valyl-p-nitroanilide(MeOSuc-Ala-Ala-Pro-Val-pNA, Cambridge research biochemical Co.) which has high specificity on neutrophil elastase.
20 μl of a test compound of various concentrations and 20 μl of enzyme solution (13 unit/ml) were added to 400 μl of 0.1M sodium phosphate buffer (pH 8.0). The mixture was incubated at 37° C. for 5 min, and then 20 μl of the substrate was added to the mixture in a final volume of 460 μl. The reaction was conducted by incubating thus obtained mixture at 37° C. for 20 min. The reaction was stopped by the addition of 300 μl of 20% acetic acid into the reaction mixture, and then p-nitroanilide released was measured by the spectrophotometrically at 405 nm.
Inhibition percents of the test compounds were calculated by the following equation:
Inhibition %=[1-(OD 405 nm value of the testing sample-background)/(OD 405 nm value of the control-background)]×100

Setting [5] is: Leukocyte, read-out: Inhibitory percent of leukocyte infiltration.
Setting [6] is: read-out: Inhibitory percent of hemorrhage.
The mark [7] stands for this setting: S: human sputum elastase, pH 8.0, 37° C., read-out: IC50.
Where [8] appears, read: N: human neutrophil elastase, pH 8.0, 37° C., read-out: IC50.

The structures appear in SMILES notation. pIC50: −log10 of the molar value. Counter-ions that a name gives are not always drawn. Like-named read-outs stand apart in the source and are kept apart here.

For orientation: pIC50 means the IC50 on a negative log10 scale, so that one unit is a factor of ten. On to `CC(=O)O.CC(C)(C)C(=O)Oc1ccc(-c2nnn(CCNC(=O)c3ccc(NC(=N)N)cc3)n2)cc1` [Example 95, 4-[2-[2-(4-Guanidinobenzoylamino)ethyl]tetrazol-5-yl]phenyl pivalate Acetate], for which, in data set [1], the “Inhibitory percent of hemorrhage” value turned out to be 15.2% and the “Inhibitory percent of leukocyte infiltration” value is recorded as 30.2%. This molecule gave a pIC50 on human sputum elastase of 6.60. In data set [2], the viability at 72 h, 1 µM came out at 103%; the viability at 72 h, 5 µM came to 109%; the viability at 72 h, 10 µM worked out at 107%. In data set [3] (setting [5]), the inhibition in vivo at 10 mg/kg turned out to be 79.6%. In addition, in data set [3] (setting [6]), the inhibition in vivo at 10 mg/kg worked out at 62.3%.

Consider `CC(C)(C)C(=O)Oc1ccc(-c2nnn(Cc3ccc(C(=O)N4CCC[C@H]4C(=O)O)cc3)n2)cc1` [Example 59, N-[4-[5-(4-pivaloyloxyphenyl)tetrazol-2-ylmethyl]benzoyl]-L-Proline], for which the pIC50 at human sputum elastase (setting [7]) is 7.40. The inhibition in vivo at 10 mg/kg in data set [3] (setting [5]) turned out to be 58.8%; in data set [3] (setting [6]), 81.5%.

Take `COc1ccc(COc2ccc(Cn3nnc(-c4ccc(OC(=O)C(C)(C)C)cc4)n3)cc2)cc1` [Example 18, 4-[2-[4-(4-Methoxybenzyloxy)benzyl]tetrazol-5-yl]phenyl pivalate]: the values for the pIC50 (at human sputum elastase (setting [7]); in data set [4] (setting [8])) were 6.80 and 7.77, respectively.

On to `CC(C)(C)C(=O)Oc1ccc(-c2nnn(CCOC(=O)c3ccc(NC(=N)N)cc3)n2)cc1` [Example 94, 4-[2-[2-(4-Guanidinobenzoyloxy)ethyl]tetrazol-5-yl]phenyl pivalate Acetate], for which the inhibition in vivo at 10 mg/kg in data set [3] (setting [5]) was 51.8%; in data set [3] (setting [6]), 36.6%. Also, the pIC50 in data set [4] was 7.02.

On to `COc1ccc(CCCCn2nnc(-c3ccc(OC(=O)C(C)(C)C)cc3)n2)cc1` [Example 21, 4-[2-[4-(4-Methoxyphenyl)butyl]tetrazol-5-yl]phenyl pivalate], for which, in data set [4] (setting [8]), the pIC50 is 7.21.

As to `CN(C)CCOc1ccc(Cn2nnc(-c3ccc(OC(=O)C(C)(C)C)cc3)n2)cc1` [Example 46, 4-[2-[4-(2-Dimethylaminoethoxy)benzyl]tetrazol-5-yl]phenyl pivalate Hydrochloride], the negative logarithm of the IC50 (pIC50) in data set [4] (setting [8]) is 7.05.

Regarding `CN(C)Cc1ccc(Cn2nnc(-c3ccc(OC(=O)C(C)(C)C)cc3)n2)cc1` [Example 47, 4-[2-[4-(Dimethylaminomethyl)benzyl]tetrazol-5-yl]phenyl pivalate], the pIC50 at human sputum elastase (setting [7]) was 6.85. Further, the inhibition in vivo at 10 mg/kg was 61.5% in data set [3] (setting [5]) and 48.6% in data set [3] (setting [6]).

For the molecule `CC(C)(C)C(=O)Oc1ccc(-c2nnn(C(C(=O)OCc3ccccc3)c3ccccc3)n2)cc1` (stereo not drawn) [Example 51, 4-[2-[α-(Benzyloxycarbonyl)benzyl)tetrazol-5-yl]phenyl pivalate], at human sputum elastase (setting [7]), the pIC50 is 7.42. In addition, the results for the inhibition in vivo at 10 mg/kg in data set [3] (setting [5]) and in data set [3] (setting [6]) were 20.5% and 57%, respectively.

As for `COc1ccc(COCCCCn2nnc(-c3ccc(OC(=O)C(C)(C)C)cc3)n2)cc1` [Example 42, 4-[2-[4-(4-Methoxybenzyloxy)butyl]tetrazol-5-yl]phenyl pivalate], the negative logarithm of the IC50 (pIC50) at human sputum elastase (setting [7]) is 7.66; in data set [4] (setting [8]), 7.72. Moreover, the inhibition in vivo at 10 mg/kg was 64.1% in data set [3] (setting [5]) and 39.4% in data set [3] (setting [6]).

On to `CC(C)(C)C(=O)Oc1ccc(-c2nnn(Cc3ccccc3C(=O)NCC(=O)O)n2)cc1` [Example 63, N-[2-[5-(4-Pivaloyloxyphenyl)tetrazol-2-ylmethyl]benzoyl]glycine], for which, in data set [2], the viability at 72 h, 1 µM was determined as 105%; the viability at 72 h, 5 µM was determined as 103%; the viability at 72 h, 10 µM came to 100%. Also, in data set [4] (setting [8]), the pIC50 was 6.52.

As to `COc1ccc(COCCCCn2nnc(-c3cccc(OC(=O)C(C)(C)C)c3)n2)cc1` [Example 23, 3-[2-[4-(4-Methoxybenzyloxy)butyl]tetrazol-5-yl]phenyl pivalate], in data set [2], the viability at 72 h, 1 µM amounted to 104%; the viability at 72 h, 5 µM was found to be 102%; the viability at 72 h, 10 µM worked out at 94.3%. The negative-log IC50 (pIC50) in data set [4] (setting [8]) is 7.66.

With `CC(C)(C)C(=O)Oc1ccc(-c2nnn(Cc3ccc(C(F)(F)F)cc3)n2)cc1` [Example 17, 4-[2-(4-Trifluoromethylbenzyl)tetrazol-5-yl]phenyl pivalate], the pIC50 in data set [4] (setting [8]) is 7.00.

Consider `CC(C)(C)C(=O)Oc1ccc(-c2nnn(Cc3ccncc3)n2)cc1` [Example 35, 4-[2-(4-Pyridylmethyl)tetrazol-5-yl]phenyl pivalate], for which, in data set [1], the “Inhibitory percent of hemorrhage” value is listed as 71.5% and the “Inhibitory percent of leukocyte infiltration” value is listed as 45.1%. On human sputum elastase (setting [7]), the negative-log IC50 (pIC50) is 7.85. Also, in data set [2], the viability at 72 h, 1 µM was determined as 95.2%; the viability at 72 h, 5 µM came out at 110%; the viability at 72 h, 10 µM stood at 99.1%.

Take `CC(C)(C)C(=O)Oc1ccc(-c2nnn(COCc3ccccc3)n2)cc1` [Example 15, 4-[2-(Benzyloxymethyl)tetrazol-5-yl]phenyl pivalate]: the pIC50 in data set [4] (setting [8]) was 7.03.

With `CC(C)(C)C(=O)Oc1ccc(-c2nnn(CCc3ccccc3)n2)cc1` [Example 14, 4-[2-(2-Phenylethyl)tetrazol-5-yl]phenyl pivalate], in data set [4] (setting [8]), the negative logarithm of the IC50 (pIC50) is 7.12.
